Data reported in ChEMBL document CHEMBL1255420, “Fluoroquinolone resistance in Streptococcus dysgalactiae subsp. equisimilis and evidence for a shared global gene pool with Streptococcus pyogenes” (2010).

What was measured:
[1] = tested on: Streptococcus dysgalactiae subsp. equisimilis; assay: Antibacterial activity against gyrA01, parC17 allele containing Streptococcus dysgalactiae subsp. equisimilis with GyrA S79F, S79F/ParC N91D, P140S mutant by CLSI […] method; assay type: functional
[2] = tested on: Streptococcus dysgalactiae subsp. equisimilis; assay: Antibacterial activity against gyrA01, parC12 allele containing Streptococcus dysgalactiae subsp. equisimilis with ParC G166E mutant by CLSI […] method; assay type: functional
[3] = tested on: Streptococcus dysgalactiae subsp. equisimilis; assay: Antibacterial activity against gyrA01, parC allele containing Streptococcus dysgalactiae subsp. equisimilis by CLSI […] method; assay type: functional
[4] = tested on: Streptococcus dysgalactiae subsp. equisimilis; assay: Antibacterial activity against gyrA02, parC17 allele containing Streptococcus dysgalactiae subsp. equisimilis with GyrA S81Y, S79F/ParC N91D, P140S mutant by CLSI […] method
[5] = tested on: Streptococcus dysgalactiae subsp. equisimilis; assay: Antibacterial activity against gyrA03, parC06 allele containing Streptococcus dysgalactiae subsp. equisimilis with GyrA E85K, S79Y mutant by CLSI […] method; assay type: functional
[6] = tested on: Streptococcus dysgalactiae subsp. equisimilis; assay: Antibacterial activity against gyrA01, parC allele containing Streptococcus dysgalactiae subsp. equisimilis with ParC N91D, P140S mutant by CLSI […] method; assay type: functional
[7] = tested on: Streptococcus dysgalactiae subsp. equisimilis; assay: Antibacterial activity against gyrA01, parC03 allele containing Streptococcus dysgalactiae subsp. equisimilis with GyrA S79P mutant by CLSI […] method; assay type: functional
[8] = tested on: Streptococcus dysgalactiae subsp. equisimilis; assay: Antibacterial activity against gyrA04, parC allele containing Streptococcus dysgalactiae subsp. equisimilis with GyrA S81F, S79F mutant by CLSI […] method; assay type: functional
[9] = tested on: Streptococcus dysgalactiae subsp. equisimilis; assay: Antibacterial activity against gyrA04, parC14 allele containing Streptococcus dysgalactiae subsp. equisimilis with GyrA S81F/ParC N91D mutant by CLSI […] method; assay type: functional
[10] = tested on: Streptococcus dysgalactiae subsp. equisimilis; assay: Antibacterial activity against gyrA03, parC10 allele containing Streptococcus dysgalactiae subsp. equisimilis with GyrA E85K/ParC D83G mutant by CLSI […] method; assay type: functional
[11] = tested on: Streptococcus dysgalactiae subsp. equisimilis; assay: Antibacterial activity against gyrA04, parC09 allele containing Streptococcus dysgalactiae subsp. equisimilis with GyrA S81F/ParC D83N mutant by CLSI […] method; assay type: functional
[12] = tested on: Streptococcus dysgalactiae subsp. equisimilis; assay: Antibacterial activity against gyrA01, parC14 allele containing Streptococcus dysgalactiae subsp. equisimilis with ParC N91D mutant by CLSI […] method; assay type: functional
[13] = tested on: Streptococcus dysgalactiae subsp. equisimilis; assay: Antibacterial activity against gyrA03, parC08 allele containing Streptococcus dysgalactiae subsp. equisimilis with GyrA E85K, S79F mutant by CLSI […] method; assay type: functional
[14] = tested on: Streptococcus dysgalactiae subsp. equisimilis; assay: Antibacterial activity against gyrA05, parC05 allele containing Streptococcus dysgalactiae subsp. equisimilis with GyrA D142N mutant by CLSI […] method; assay type: functional
[15] = tested on: Streptococcus dysgalactiae subsp. equisimilis; assay: Antibacterial activity against gyrA04, parC15 allele containing Streptococcus dysgalactiae subsp. equisimilis with GyrA S81F, S79F/ParC N91D mutant by CLSI […] method; assay type: functional
[16] = tested on: Streptococcus dysgalactiae subsp. equisimilis; assay: Antibacterial activity against gyrA01, parC19 allele containing Streptococcus dysgalactiae subsp. equisimilis with GyrA S79A/ParC N91D, P140S mutant by CLSI […] method; assay type: functional
[17] = tested on: Streptococcus dysgalactiae subsp. equisimilis; assay: Antibacterial activity against gyrA04, parC17 allele containing Streptococcus dysgalactiae subsp. equisimilis with GyrA S81F, S79F/ParC N91D, P140S mutant by CLSI […] method; assay type: functional
[18] = tested on: Streptococcus dysgalactiae subsp. equisimilis; assay: Antibacterial activity against gyrA01, parC04 allele containing Streptococcus dysgalactiae subsp. equisimilis with GyrA S79F mutant by CLSI […] method; assay type: functional
[19] = tested on: Streptococcus dysgalactiae subsp. equisimilis; assay: Antibacterial activity against gyrA04, parC13 allele containing Streptococcus dysgalactiae subsp. equisimilis with GyrA S81F, S79A mutant by CLSI […] method; assay type: functional

C[C@H]1COc2c(N3CCN(C)CC3)c(F)cc3c(=O)c(C(=O)O)cn1c23.C[C@H]1COc2c(N3CCN(C)CC3)c(F)cc3c(=O)c(C(=O)O)cn1c23.O [LEVOFLOXACIN]
MIC [1]: 1.5 µg/mL
MIC [2]: 1 µg/mL
MIC [3]: 0.38 µg/mL
MIC [4]: > 32 µg/mL
MIC [5]: > 32 µg/mL
MIC [6]: 0.19 µg/mL
MIC [7]: 0.75 µg/mL
MIC [8]: > 32 µg/mL
MIC [9]: 4 µg/mL
MIC [10]: 8 µg/mL
MIC [11]: > 8 µg/mL
MIC [12]: 0.5 µg/mL
MIC [13]: > 32 µg/mL
MIC [14]: 0.38 µg/mL
MIC [15]: > 32 µg/mL
MIC [16]: 2 µg/mL
MIC [17]: > 32 µg/mL
MIC [18]: 3 µg/mL
MIC [19]: 12 µg/mL
